Among the test systems are COLO 205 colon; HS 578T breast; KM12 colon; MCF7 breast; NCI-H226 lung; NCI-H23 lung; RPMI-8226 leukemia; SW-620 colon; T-47D breast; UO-31 renal.
Assay in all cases: DTP human tumour cell line panel, 48 h

We go through eleven compounds from PubChem BioAssay (NCI).

Several values for one entry are separate records, joined by “and”; a condition that tells them apart may be missing. Equal entries are not always repeated.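 Five compound concentrations were applied to cells in 96-well plates for 48 hours; endpoints were derived by simple linear interpolation of the resulting dose-response curve. Abbreviation: GI50, concentration required for 50% inhibition of growth. TGI marks complete inhibition of growth.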 A value given as a limit tells only on which side of the number the result lay.

Consider `COc1cc2ncn(-c3cc(OCc4ccccc4C(F)(F)F)c(C(=O)N(C)C)s3)c2cc1OC`, for which the GI50 in the experiment on COLO 205 colon is over 16.8 µM; with HS 578T breast it was over 25 µM; in the experiment on KM12 colon, over 25 µM; in the experiment on MCF7 breast, over 25 µM; in the experiment on NCI-H226 lung, 5.85 µM; with NCI-H23 lung it was over 25 µM. For the same compound, the GI50 in the experiment on RPMI-8226 leukemia is over 25 µM; in the experiment on SW-620 colon, over 25 µM; in the experiment with T-47D breast, 7.02 µM; in the experiment with UO-31 renal, 9.69 µM. In addition, the TGI was over 25 µM in the experiment on COLO 205 colon; over 25 µM in the experiment with HS 578T breast; over 25 µM with KM12 colon; over 25 µM in the experiment on MCF7 breast; over 12.5 µM in the experiment with NCI-H226 lung; over 25 µM with NCI-H23 lung. In addition, the TGI is over 25 µM with RPMI-8226 leukemia, over 25 µM in the experiment on SW-620 colon, over 17 µM in the experiment on T-47D breast and over 25 µM in the experiment with UO-31 renal.
`O=C(c1nc2ccc([N+](=O)[O-])cc2[nH]c1=O)C(O)c1ccc2c(c1)OCO2` (stereo not given): the TGI was over 100 µM in the experiment on COLO 205 colon; over 100 µM with HS 578T breast; over 93 µM in the experiment with KM12 colon; over 100 µM in the experiment on MCF7 breast; over 100 µM with NCI-H226 lung; over 100 µM with NCI-H23 lung. Further, the TGI in the experiment on RPMI-8226 leukemia, in the experiment with SW-620 colon, in the experiment with T-47D breast and with UO-31 renal was over 100 µM each time.
Take `CC(=O)c1ccc2c(c1)C1C=CCC1[C@H](c1cc3c(cc1Br)OCO3)N2` (stereo not given in full): the GI50 in the experiment with COLO 205 colon was 1.94 µM; in the experiment with HS 578T breast, 0.713 µM; in the experiment on KM12 colon, 0.581 µM; with MCF7 breast it was 0.368 µM; with NCI-H226 lung, 1.74 µM; in the experiment with NCI-H23 lung it was 2.24 µM. Further, the GI50 was 0.58 µM in the experiment with RPMI-8226 leukemia, 0.448 µM with SW-620 colon, 1.74 µM with T-47D breast and 1.89 µM in the experiment with UO-31 renal. The TGI in the experiment on COLO 205 colon was 5.71 µM; in the experiment on HS 578T breast it was 2.19 µM; in the experiment on KM12 colon it was 11.3 µM; with MCF7 breast, 18.9 µM; in the experiment with NCI-H226 lung, over 32.6 µM; in the experiment with NCI-H23 lung, 33.4 µM. Moreover, the TGI was 13.2 µM in the experiment with RPMI-8226 leukemia, over 29.2 µM with SW-620 colon, over 47.4 µM in the experiment with T-47D breast and 34.9 µM with UO-31 renal.
Consider `CC(C)c1cnn2c(NCc3ccccc3)cc(NC[C@H]3CCNC[C@@H]3O)nc12`, for which the GI50 in the experiment with COLO 205 colon was 0.179 µM and 0.21 µM; in the experiment with HS 578T breast, 0.839 µM and 1.38 µM; in the experiment with KM12 colon it was 0.353 µM and 0.407 µM; in the experiment on MCF7 breast, 0.13 µM and 0.186 µM; in the experiment on NCI-H226 lung, 0.766 µM and 0.725 µM; in the experiment with NCI-H23 lung, 0.463 µM. Also, the GI50 with RPMI-8226 leukemia is 0.158 µM and 0.211 µM; with SW-620 colon, 0.239 µM and 0.432 µM; in the experiment with T-47D breast it was 0.472 µM and 0.898 µM; with UO-31 renal, 2 µM and 2.65 µM. For the same compound, the TGI in the experiment on COLO 205 colon is 0.476 µM and 0.749 µM; in the experiment with HS 578T breast, 4.63 µM and 5.41 µM; in the experiment on KM12 colon, 3.31 µM and 2.5 µM; in the experiment with MCF7 breast, 4.83 µM and 4.03 µM; with NCI-H226 lung, 4.01 µM and 5.53 µM; in the experiment on NCI-H23 lung, 2.98 µM. For the same compound, the TGI in the experiment with RPMI-8226 leukemia is 1.82 µM and 4.14 µM; in the experiment on SW-620 colon, 10.4 µM and 11 µM; with T-47D breast it was 7.58 µM and 9.5 µM; in the experiment on UO-31 renal, 11.8 µM and 12 µM.
Take `CS(=O)(=O)CCNCc1cc(-c2cc3c(Nc4ccc(OCc5cccc(F)c5)c(Cl)c4)ncnc3s2)cs1`: the GI50 in the experiment with COLO 205 colon is 9.61 µM; in the experiment on HS 578T breast it was 4.67 µM; in the experiment on KM12 colon, 6.55 µM; in the experiment on MCF7 breast, 10.8 µM; in the experiment on NCI-H226 lung it was 15.1 µM; in the experiment with NCI-H23 lung it was 20.5 µM. Also, the GI50 is 6.95 µM with RPMI-8226 leukemia, 15 µM with SW-620 colon, 3 µM in the experiment with T-47D breast and 4.52 µM in the experiment with UO-31 renal. For the same compound, the TGI was over 25 µM in the experiment on COLO 205 colon; over 17.6 µM in the experiment on HS 578T breast; over 25 µM with KM12 colon; over 25 µM with MCF7 breast; over 25 µM with NCI-H226 lung; over 25 µM with NCI-H23 lung. Further, the TGI in the experiment on RPMI-8226 leukemia is 23.2 µM; with SW-620 colon it was over 25 µM; in the experiment on T-47D breast, over 23.6 µM; in the experiment on UO-31 renal it was over 25 µM.
For the compound `CC(C)CCC[C@@H](C)[C@H]1CC[C@H]2[C@@H]3CC[C@H]4C[C@@H](CCC=C(c5cc(Cl)c(O)c(C(=O)O)c5)c5cc(Cl)c(O)c(C(=O)O)c5)CC[C@]4(C)[C@H]3CC[C@]12C`, the TGI with COLO 205 colon, in the experiment with HS 578T breast, with KM12 colon, with MCF7 breast, with NCI-H226 lung and with NCI-H23 lung was over 100 µM throughout. For the same compound, the TGI with RPMI-8226 leukemia, in the experiment with SW-620 colon, in the experiment with T-47D breast and in the experiment on UO-31 renal was over 100 µM each time.
Regarding `CCC(O)c1ccc(Br)cc1NC(=O)c1cccc(Cl)c1` (stereo not given), the GI50 was 18.8 µM in the experiment with COLO 205 colon; 24.6 µM with HS 578T breast; 13 µM in the experiment on KM12 colon; 12 µM in the experiment on MCF7 breast; 21.5 µM with NCI-H226 lung; 22.4 µM in the experiment with NCI-H23 lung. The GI50 in the experiment with RPMI-8226 leukemia is 11.4 µM; in the experiment on SW-620 colon, 26.6 µM; in the experiment with T-47D breast it was 12.7 µM; with UO-31 renal, 10.8 µM. For the same compound, the TGI was 34.6 µM with COLO 205 colon; over 100 µM in the experiment with HS 578T breast; 29.6 µM in the experiment on KM12 colon; 96 µM with MCF7 breast; 64.6 µM with NCI-H226 lung; 86.6 µM in the experiment on NCI-H23 lung. The TGI with RPMI-8226 leukemia was 48.3 µM; with SW-620 colon, 99.6 µM; in the experiment with T-47D breast it was 84.8 µM; in the experiment on UO-31 renal, over 100 µM.
Turning to `COc1cc2nc(SCc3cc(OC)c(OC)c(OC)c3)n(Cc3ccccc3)c(=O)c2cc1OC`, the GI50 with COLO 205 colon is 1.74 µM; in the experiment on HS 578T breast it was 2.09 µM; in the experiment with KM12 colon, 2.55 µM; with MCF7 breast it was 0.742 µM; in the experiment with NCI-H226 lung, 6.85 µM; in the experiment with NCI-H23 lung it was 6.58 µM. The GI50 with RPMI-8226 leukemia was 2.84 µM; with SW-620 colon, 2.5 µM; with T-47D breast, 4.54 µM; with UO-31 renal, 3.9 µM. Moreover, the TGI in the experiment with COLO 205 colon is 6.96 µM; in the experiment on HS 578T breast, 21.3 µM; with KM12 colon it was over 100 µM; in the experiment with MCF7 breast it was over 100 µM; in the experiment with NCI-H226 lung it was over 100 µM; in the experiment on NCI-H23 lung, over 100 µM. Moreover, the TGI is over 100 µM in the experiment with RPMI-8226 leukemia, over 100 µM in the experiment with SW-620 colon, over 65.9 µM in the experiment on T-47D breast and over 100 µM in the experiment on UO-31 renal.
`NS(=O)(=O)c1ccc(-n2nc3c(c2-c2ccc(Cl)cc2)Cc2ccccc2-3)cc1`: the GI50 is 22.8 µM in the experiment with COLO 205 colon; 12.1 µM in the experiment on HS 578T breast; 19.9 µM in the experiment with KM12 colon; 22.9 µM in the experiment on MCF7 breast; 16.8 µM in the experiment on NCI-H226 lung; 3.27 µM in the experiment with NCI-H23 lung. For the same compound, the GI50 with RPMI-8226 leukemia is 10.4 µM; in the experiment on SW-620 colon, 1.88 µM; in the experiment on T-47D breast, 91 µM; in the experiment with UO-31 renal, 9.57 µM. Further, the TGI turned out to be 64.1 µM in the experiment on COLO 205 colon; 33 µM in the experiment on HS 578T breast; 52.8 µM in the experiment on KM12 colon; 54.8 µM in the experiment with MCF7 breast; 35.4 µM with NCI-H226 lung; 19.6 µM in the experiment with NCI-H23 lung. The TGI with RPMI-8226 leukemia is 24.7 µM; in the experiment with SW-620 colon it was 4.48 µM; in the experiment with T-47D breast, over 100 µM; in the experiment on UO-31 renal, 21.8 µM.
With `COc1ccc(-c2ccncc2)cc1C(N)=O`, the GI50 in the experiment with COLO 205 colon, in the experiment with HS 578T breast, in the experiment on KM12 colon, with MCF7 breast, in the experiment with NCI-H226 lung and with NCI-H23 lung was over 25 µM throughout. For the same compound, the GI50 with RPMI-8226 leukemia, in the experiment on SW-620 colon, in the experiment on T-47D breast and in the experiment on UO-31 renal was over 25 µM each time. In addition, the concentration for total growth inhibition (TGI) in the experiment with COLO 205 colon, with HS 578T breast, in the experiment on KM12 colon, in the experiment with MCF7 breast, with NCI-H226 lung and with NCI-H23 lung was over 25 µM throughout. Moreover, the TGI with RPMI-8226 leukemia, in the experiment on SW-620 colon, in the experiment on T-47D breast and in the experiment on UO-31 renal was over 25 µM in each case.
Turning to `Cc1nc(-c2ccccc2)n2nc(NCCCN3CCOCC3)ncc12`, the GI50 in the experiment with COLO 205 colon is 19.1 µM; with HS 578T breast, 12.2 µM; with KM12 colon, over 25 µM; in the experiment with MCF7 breast it was over 25 µM; with NCI-H226 lung, over 8.17 µM; in the experiment with NCI-H23 lung, over 25 µM. Further, the GI50 with RPMI-8226 leukemia is over 25 µM; with SW-620 colon it was over 25 µM; in the experiment on T-47D breast it was over 25 µM; in the experiment with UO-31 renal it was 4.48 µM. Also, the TGI in the experiment on COLO 205 colon, in the experiment on HS 578T breast, with KM12 colon, in the experiment with MCF7 breast, with NCI-H226 lung and in the experiment on NCI-H23 lung was over 25 µM in each case. The TGI is over 25 µM in the experiment on RPMI-8226 leukemia, over 25 µM with SW-620 colon, over 25 µM in the experiment with T-47D breast and 24.4 µM in the experiment on UO-31 renal.

The GI50 is the concentration that inhibits growth by half. As usually defined, the TGI is the concentration at which net growth stops. A lower TGI goes with greater sensitivity of the cells.
